In this experiment the target is human GPR43 (Homo sapiens (Human), UniProt O15552). Kind of experiment: Ca-Flux functional assay: determination of agonist/positive allosteric modulator (PAM) activity. The format is cell-based. Conditions: CHO-K1 Gα16 cells stably expressing human GPR43; compound added with EC20 sodium acetate; intracellular Ca2+ by FLIPR; does not distinguish agonist from PAM. The procedure:
Ca-Flux Functional Assay: Determination of Agonist/Positive Allosteric Modulator (PAM) Activity
GPR43 agonist/PAM activity was determined by measuring changes in intracellular calcium levels using a Ca^2+ sensitive fluorescent dye. The changes in fluorescent signal were monitored by FLIPR (manufactured by Molecular Devices). GPR43 mediated increases in intracellular Ca^2+ concentration were readily detected upon activation with sodium acetate. Prior to the assay (24 hours), CHO-K1 Gα16 cells stably expressing human GPR43 were-seeded in cell culture medium in black, clear-bottom 384-well plates (Corning Inc) and grown overnight at 37° C., 5% CO2. On the day of the assay, cell culture media was removed and cells were loaded with Calcium 5 Dye (Molecular Devices) diluted in HBSS containing 25 mM HEPES, 2.5 mM Probenecid, 0.1% BSA for 1 hour at 37° C., 5% CO2. 10 point half log concentration response curves of sodium acetate from 10 mM were conducted prior to the testing of compounds to calculate the sodium acetate concentration that produces 20% of the maximal response (EC20). Test compounds (at 10 point half log concentration response curves from 10 μM) were added in the presence of sodium acetate to achieve a final concentration that produces approximately 20% maximal response as calculated from the previous experiment. The changes in fluorescent signal were monitored by FLIPR upon addition of the compound/EC20 sodium acetate mix. The EC50 values were determined from ten point concentration response curves. Curves were generated using the average of two wells for each data point.
The above assay detects both GPR43 receptor agonists and positive allosteric modulators of the GPR43 receptor, without distinguishing between the two. Activity in either regard is useful in the treatment of conditions associated with GPR43 receptor activity.

SMILES strings stand for the structures.

human GPR43, sequence (O15552 whole entry): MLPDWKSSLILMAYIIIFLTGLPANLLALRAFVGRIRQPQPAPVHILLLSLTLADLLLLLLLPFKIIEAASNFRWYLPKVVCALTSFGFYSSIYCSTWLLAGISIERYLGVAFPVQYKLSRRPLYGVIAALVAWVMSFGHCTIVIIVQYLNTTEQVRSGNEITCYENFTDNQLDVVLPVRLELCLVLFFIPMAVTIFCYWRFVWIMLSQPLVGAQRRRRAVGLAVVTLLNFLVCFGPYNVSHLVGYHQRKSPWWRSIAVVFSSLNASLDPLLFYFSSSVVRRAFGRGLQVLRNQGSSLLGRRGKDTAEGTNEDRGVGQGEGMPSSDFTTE

In general, EC50 refers to the concentration giving half of the maximal effect. In the case of `C[C@@H]1CN(c2ncnc3c(S(=O)(=O)c4ccccc4)c(N)[nH]c23)C[C@H](C)O1` [Example 75, 7-(benzenesulfonyl)-4-[(2R,6S)-2,6-dimethylmorpholin-4-yl]-5H-pyrrolo[3,2-d]pyrimidin-6-amine], the EC50 came to 14 nM.
On to `CC1(C)CCN(c2ncnc3c(S(=O)(=O)c4ccccc4)c(N)[nH]c23)C1` [Example 47], for which the response was half-maximal at 358 nM (EC50). Compared with the last molecule, the EC50 is about 26-fold higher.
To `Nc1[nH]c2c(N3CCO[C@@H](c4ccccc4)C3)ncnc2c1S(=O)(=O)c1ccccc1` [Example 134, 7-(benzenesulfonyl)-4-[(2S)-2-phenylmorpholin-4-yl]-5H-pyrrolo[3,2-d]pyrimidin-6-amine] belongs 93 nM; to `Cc1nc(OC2CCCC2)c2[nH]c(N)c(S(=O)(=O)c3ccccc3)c2n1` [Example 257, 7-(benzenesulfonyl)-4-(cyclopentyloxy)-2-methyl-5H-pyrrolo[3,2-d]pyrimidin-6-amine], 100 nM; to `Cc1nc(OC2CCOC(C)(C)C2)c2[nH]c(N)c(S(=O)(=O)c3ccccc3)c2n1` (centres unmarked) [Example 253, 7-(benzenesulfonyl)-4-[(2,2-dimethyloxan-4-yl)oxy]-2-methyl-5H-pyrrolo[3,2-d]pyrimidin-6-amine], 133 nM.
To `Cc1nc(C2CCC(F)(F)CC2)c2[nH]c(N)c(S(=O)(=O)c3ccccc3)c2n1` [Example 183, 7-(benzenesulfonyl)-4-(4,4-difluorocyclohexyl)-2-methyl-5H-pyrrolo[3,2-d]pyrimidin-6-amine] belongs 173 nM; to `Cc1nc(N2CCOC(C)(C(F)(F)F)C2)c2[nH]c(N)c(S(=O)(=O)c3ccccc3F)c2n1` (centres unmarked) [Example 303, 7-(2-fluorobenzenesulfonyl)-2-methyl-4-[2-methyl-2-(trifluoromethyl)morpholin-4-yl]-5H-pyrrolo[3,2-d]pyrimidin-6-amine], 3 nM; to `Cc1nc(N2CCO[C@@H](C)C2)c2[nH]c(N)c(S(=O)(=O)c3ccccc3F)c2n1` [Example 218, 7-(2-fluorobenzenesulfonyl)-2-methyl-4-[(2S)-2-methylmorpholin-4-yl]-5H-pyrrolo[3,2-d]pyrimidin-6-amine], 2 nM.
The result for `Nc1[nH]c2c(C3CCC(F)(F)CC3)ncnc2c1S(=O)(=O)c1ccccc1` [Example 155, 7-(benzenesulfonyl)-4-(4,4-difluorocyclohexyl)-5H-pyrrolo[3,2-d]pyrimidin-6-amine] reads 330 nM; that for `CC1CN(c2nc(C(F)(F)F)nc3c(S(=O)(=O)c4cccc(F)c4)c(N)[nH]c23)CCO1` (centres unmarked) [Example 265, 7-(3-fluorobenzenesulfonyl)-4-(2-methylmorpholin-4-yl)-2-(trifluoromethyl)-5H-pyrrolo[3,2-d]pyrimidin-6-amine], 68 nM.
`Cc1nc(OC(C)C)c2[nH]c(N)c(S(=O)(=O)c3ccccc3)c2n1` [Example 242, 7-(benzenesulfonyl)-2-methyl-4-(propan-2-yloxy)-5H-pyrrolo[3,2-d]pyrimidin-6-amine] returned an EC50 of 51 nM.
To `Cc1nc(N2CCO[C@H](C(F)(F)F)C2)c2[nH]c(N)c(S(=O)(=O)c3ccc(F)cc3F)c2n1` [Example 283, 7-(2,4-difluorobenzenesulfonyl)-2-methyl-4-[(2S)-2-(trifluoromethyl)morpholin-4-yl]-5H-pyrrolo[3,2-d]pyrimidin-6-amine] belongs 1 nM.
The result for `COc1ccc(S(=O)(=O)c2c(N)[nH]c3c(N4CCO[C@@H](C(F)(F)F)C4)nc(C)nc23)c(F)c1` [Example 293, 7-(2-fluoro-4-methoxybenzenesulfonyl)-2-methyl-4-[(2R)-2-(trifluoromethyl)morpholin-4-yl]-5H-pyrrolo[3,2-d]pyrimidin-6-amine] reads 2 nM.
The result for `Nc1[nH]c2c(N3CCOC(C(F)(F)F)C3)ncnc2c1S(=O)(=O)c1ccccc1F` (centres unmarked) [Example 302, 7-(2-fluorobenzenesulfonyl)-4-[2-(trifluoromethyl)morpholin-4-yl]-5H-pyrrolo[3,2-d]pyrimidin-6-amine] reads 2 nM; that for `CSc1nc(N2CCOC(C)C2)c2[nH]c(N)c(S(=O)(=O)c3cccc(F)c3)c2n1` (centres unmarked) [Example 264, 7-(3-fluorobenzenesulfonyl)-4-(2-methylmorpholin-4-yl)-2-(methylsulfanyl)-5H-pyrrolo[3,2-d]pyrimidin-6-amine], 45 nM; that for `Cc1nc(OCC(C)(C)C)c2[nH]c(N)c(S(=O)(=O)c3ccccc3)c2n1` [Example 250, 7-(benzenesulfonyl)-4-(2,2-dimethylpropoxy)-2-methyl-5H-pyrrolo[3,2-d]pyrimidin-6-amine], 114 nM.
Turning to `Nc1[nH]c2c(C3CCCC3)ncnc2c1S(=O)(=O)c1ccccc1` [Example 23, 7-(benzenesulfonyl)-4-cyclopentyl-5H-pyrrolo[3,2-d]pyrimidin-6-amine], the midpoint of the response, the EC50, lay at 97 nM.
To `Cc1nc(OC2CC(F)(F)C2)c2[nH]c(N)c(S(=O)(=O)c3ccccc3)c2n1` [Example 259, 7-(benzenesulfonyl)-4-(3,3-difluorocyclobutoxy)-2-methyl-5H-pyrrolo[3,2-d]pyrimidin-6-amine] belongs 66 nM.
Molecule `Nc1[nH]c2c(C3CCCCC3)ncnc2c1S(=O)(=O)c1ccc(OC(F)F)cc1` [Example 36, 4-cyclohexyl-7-{[4-(difluoromethoxy)benzene]sulfonyl}-5H-pyrrolo[3,2-d]pyrimidin-6-amine] showed an EC50 of 87 nM.
`Cc1nc(N2CCOC(C)(C)C2)c2[nH]c(N)c(S(=O)(=O)c3ccc(F)cc3F)c2n1` [Example 278, 7-(2,4-difluorobenzenesulfonyl)-4-(2,2-dimethylmorpholin-4-yl)-2-methyl-5H-pyrrolo[3,2-d]pyrimidin-6-amine] gave a half-maximal effective concentration (EC50) of 6 nM. Compared with the last molecule, the EC50 is about 14-fold lower.
The molecule `CC(Oc1ncnc2c(S(=O)(=O)c3ccccc3)c(N)[nH]c12)c1ccccc1` (centres unmarked) [Example 164, 7-(benzenesulfonyl)-4-(1-phenylethoxy)-5H-pyrrolo[3,2-d]pyrimidin-6-amine] yielded an EC50 of 25 nM.
The result for `CSc1nc(N2CCOC(C(F)(F)F)C2)c2[nH]c(N)c(S(=O)(=O)c3ccccc3F)c2n1` (centres unmarked) [Example 301, 7-(2-fluorobenzenesulfonyl)-2-(methylsulfanyl)-4-[2-(trifluoromethyl)morpholin-4-yl]-5H-pyrrolo[3,2-d]pyrimidin-6-amine] reads 14 nM; that for `Cc1nc(N2C[C@@H](C)O[C@H](C)C2)c2[nH]c(N)c(S(=O)(=O)c3cccc(F)c3)c2n1` [Example 200, 4-[(2R,6R)-2,6-dimethylmorpholin-4-yl]-7-(3-fluorobenzenesulfonyl)-2-methyl-5H-pyrrolo[3,2-d]pyrimidin-6-amine], 25 nM; that for `O=S(=O)(c1ccccc1)c1c(NC2CCC(F)(F)CC2)[nH]c2ncccc12` [Example 1, 3-(benzenesulfonyl)-N-(4,4-difluorocyclohexyl)-1H-pyrrolo[2,3-b]pyridin-2-amine], 5500 nM.
The result for `Cc1nc(Nc2ccc(Cl)cc2)c2[nH]c(N)c(S(=O)(=O)c3ccccc3F)c2n1` [Example 300, N4-(4-chlorophenyl)-7-(2-fluorobenzenesulfonyl)-2-methyl-5H-pyrrolo[3,2-d]pyrimidine-4,6-diamine] reads 9 nM; that for `Nc1[nH]c2c(OC3CCC3)ncnc2c1S(=O)(=O)c1ccccc1` [Example 167, 7-(benzenesulfonyl)-4-cyclobutoxy-5H-pyrrolo[3,2-d]pyrimidin-6-amine], 76 nM.

The record behind these values is US10059713B2 (Takeda Pharmaceutical Company Limited, priority 2014, dated 2018).
